Series [1] is described as follows: Body weight gain during chronic treatment. The settings on record: 4 weeks of treatment. It is filed as in vivo, mouse.
Series [2] deals with α-tubulin K40 acetylation in cortex, hippocampus, DRN, cerebellum. In words: α-tubulin acetylation in brain regions after subchronic administration, WT and HDAC6 KO mice. It is filed as in vivo, mouse. The protocol: Results are shown as percent change normalized to the vehicle treatment condition. The horizontal hard line depicts average and the dotted lines depict SEM of the vehicle treated wells. Representative Western blot images are presented. […] Representative Western blot images are presented. […] […] The changes in tubulin acetylation were measured in tissue lysates from cortex (ctx), hippocampus (Hpc), dorsal Raphe nucleus (DRN) and cerebellum (cb). The tubulin acetylation levels in drug-treated mice are expressed as percent change of the vehicle-treated mice of the corresponding genotype. The horizontal lines depict the average tubulin acetylation±SEM in the vehicle treated mice. The representative Western blot images show the changes induced by each drug treatment in the hippocampus (left column) and dorsal raphe (right column) of WT and HDAC6 KO mice.

Series [3] concerns RN46A-B14 serotonergic cell line. In words: α-tubulin K40 acetylation in RN46A-B14 cells (Western blot). It is filed as cell-based, rat. The note with it: 4 hours; TSA 0.6 μM, others 2.5 μM. The protocol: In FIG. 3, it was observed that subchronic treatment, consisting of 5 treatments at 48, 28, 24, 4 and ½ hours before sacrifice, led to greater increase in tubulin acetylation than did chronic treatment of 1 injection/day for 21 days. For cell culture, RN46B cells were treated for with 0.25, 2.5 or 25 μM drug in DMSO for 1, 4 or 24 hours as indicated. Tukey post-hoc analysis: * P=0.01 to 0.05, ** P=0.001-0.01, ***P<0.001 when compared with vehicle treatment.
Results are shown as percent change normalized to the vehicle treatment condition. The horizontal hard line depicts average and the dotted lines depict SEM of the vehicle treated wells. Representative Western blot images are presented. […] Representative Western blot images are presented. […] The drugs (5 mg/kg) were administered subchronically (at 24 h, 4 h and 30 min prior to sacrifice) to HDAC6 KO and WT littermates. The changes in tubulin acetylation were measured in tissue lysates from cortex (ctx), hippocampus (Hpc), dorsal Raphe nucleus (DRN) and cerebellum (cb). The tubulin acetylation levels in drug-treated mice are expressed as percent change of the vehicle-treated mice of the corresponding genotype. The horizontal lines depict the average tubulin acetylation±SEM in the vehicle treated mice. The representative Western blot images show the changes induced by each drug treatment in the hippocampus (left column) and dorsal raphe (right column) of WT and HDAC6 KO mice.
In contrast to the class I isoforms HDAC2 and 3, which are expressed highly and ubiquitously in the mouse brain, HDAC6 mRNA expression appears to be restricted to a small number of brain areas, with highest signal observed in DRN (FIG. 13f). […] No changes in total α-tubulin expression were detected (FIG. 14a).
For orientation: In western blotting, separated proteins are transferred to a membrane and probed.

A short description of series [4]: Pharmacokinetics and brain bio-distribution in mice. The series is classed as in vivo, mouse. The note with it: mouse; for Kp: brain, calculated over 2 hours. The protocol:
[…] Plasma samples were taken from all mice upon sacrifice. Brain samples were taken from the mice sacrificed at 5 and 15 minutes and 1 and 4 hours. The brain samples were homogenized in PBS and centrifuged at 14000 rpm for 5 minutes. The supernatant from the brain homogenate and the plasma samples were injected onto a LC/MS/MS for analysis. The compound level in the samples was determined by a standard curve in the appropriate matrix. Pharmacokinetic parameters were determined from the raw data by WinNonLin.

Series [5] relates to mice. Briefly: Elevated plus maze (EPM). The settings on record: acute administration. The series is classed as in vivo, mouse.

Where “and” joins values, the source holds several entries; their conditions need not be identical. Identical values can stand only once. Like-named read-outs stand apart in the source and are kept apart here. Bounds are passed on as bounds.

Turning to `O=C(NO)c1cnc(NC2(c3cccc(F)c3)CCCCC2)nc1` [Compound 101, 2-((1-(3-fluorophenyl)cyclohexyl)amino)-N-hydroxypyrimidine-5-carboxamide], the body weight gain entry in series [1] is “no significant effect”. Besides, the “α-tubulin acetylation over baseline levels” value in series [2] (HDAC6 KO mice, identical treatment regimens) was “did not produce increases”. Also, the “α-tubulin acetylation in cortex, hippocampus, DRN, cerebellum” value in series [2] (wild-type mice, 24 h, 4 h, 30 m before sacrifice, compound 73 5 mg/kg, compound 101 50 mg/kg) is on record as “significant increases”. The “acetylated (lysine 40) fraction of α-tubulin” value in series [3] is “increases”. Further, the Kp in series [4] (C57BL/6J, intraperitoneal, read-out: AUCBrain/AUCplasma) is 1.26; in series [4] (intraperitoneal, read-out: AUCBrain/AUCplasma ratio), over 1. The concentration at 30 min in series [4] (C57BL/6J, plasma, intraperitoneal, 5 mg/kg, read-out: 30 min plasma concentration (ng/ml) - 5 mg/kg) is 496 ng/mL; in series [4] (C57BL/6J, plasma, intraperitoneal, 50 mg/kg, read-out: 30 min plasma concentration (ng/ml) - 50 mg/kg), 1360 ng/mL; in series [4] (plasma, intraperitoneal, acute 50 mg/kg injection, read-out: plasma level at t=30 minutes), 1360 ng/mL and 4.1 µM. The Cmax – broadly, the peak of the concentration-time curve – in series [4] (C57BL/6J, plasma, ip, 5 mg/kg, mice, acute i.p. dosing, read-out: Cmax) is 915 ng/mL. Further, the half-life was 30 min in series [4] (C57BL/6J, plasma, ip, mice, acute i.p. dosing, read-out: T½ plasma (converted)) and 12 min in series [4] (plasma, intraperitoneal, read-out: plasmatic half-life). In addition, the concentration at 2 h in series [4] (plasma, intraperitoneal, read-out: plasma concentration after two hours) is under 10 ng/mL. For the same compound, in series [5], the “behavioral changes / time in the open arms of the maze” value was “neither compound 73 nor compound 101 produced behavioral changes”.

(Values after US20150250786A1, “PYRIMIDINE HYDROXY AMIDE COMPOUNDS AS PROTEIN DEACETYLASE INHIBITORS AND METHODS OF USE THEREOF” (THE TRUSTEES OF THE UNIVERSITY OF PENNSYLVANIA, priority 2012, published 2015).)
